Legend:
[1] = Particle characteristics of LNPs containing luciferase mRNA and novel ionizable lipids; assay type: physicochemical
Procedure, shortened: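 LNPs made from PEG-lipid, ionizable lipid, cholesterol and phospholipid in ethanol, T-mixed with luciferase mRNA in 100 mM acetate pH 5. Products were dialysed, concentrated, and dialysed into 5 mM Tris, 10% sucrose, pH 8, then 0.2 μm filtered. mRNA was measured by RiboGreen, and size and polydispersity by dynamic light scattering on a Zetasizer.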

[2] = tested on: luciferase activity in the liver; experiment: Luciferase activity in liver after intravenous luciferase mRNA LNP; assay type: in vivo; conditions: 0.5 mg/kg IV, 6 h post-IV administration, BALB/c mice (n = 4)
[3] = tested on: human OTC expression in the liver; experiment: Dose response of human OTC mRNA LNP, OTC expression in liver (ELISA); assay type: in vivo; conditions: 24 h, male C57BL/6 mice (n = 4)
Protocol: LNP formulations encapsulating ornithine transcarbamylase mRNA were injected intravenously at the specified dose levels to male C57BL/6 mice (6-8 weeks old).
Liver homogenates were prepared with PBS, Halt protease inhibitor cocktail and FastPrep homogenization, standardized to 2 mg/mL protein with a BCA Protein Assay, and then analyzed by ELISA. Briefly, samples were diluted with PBS and plated on Nunc Maxisorp plates. A standard curve using human […] protein was prepared from the naïve animal controls (vehicle). After 2 h incubation the plates were washed, and the primary antibody was added. After 1 h incubation, the secondary antibody was added and incubated for another hour. After washing, TMB Substrate was added for color development and the reaction was stopped with 2 N sulfuric acid. The plate was read at 450/570 OD.
At 24 h post-dose, the novel lipid formulations reported dose-dependent increases in human OTC expression in the liver (Table 15).

[4] = Parent ionizable lipid remaining in liver at 24 h after EGFP mRNA LNP (LC-MS); assay type: in vivo; conditions: 24 h after IV 0.5 mg/kg EGFP mRNA LNP, female BALB/c mice (n = 4)
[5] = Lipid clearance from liver over time after EGFP mRNA LNP (LC-MS); assay type: in vivo; conditions: IV 0.5 mg/kg EGFP mRNA LNP, female BALB/c mice (n = 4)
Protocol: Liver tissues were treated with PBS and homogenized with a FastPrep machine, 3 cycles of 5 m/s×15 s. Homogenates from the PBS-treated control animals was pooled and used for standard curve preparation. Samples were extracted into a deep well plate with 250 μL of an internal suitability standard. Plates were centrifuged for 15 min at 4° C. and 2000 rpm. Analysis was performed using an Agilent 6520 QTOF coupled to an Agilent 1290 UHPLC, using reverse-phase LC separation. Quantitation of the ionizable lipid was by MS/MS against a calibration curve spiked into appropriately matched blank matrix. Calibration used a similar class of synthetic lipid as internal standard.
At various timepoints post-dose, lipid levels were assessed in the liver. Some novel ionizable lipids reported more rapid clearance rates compared to the benchmark (Table 33).

[6] = tested on: EGFP expression in the liver; experiment: EGFP expression in liver after intravenous EGFP mRNA LNP (ELISA); conditions: 0.5 mg/kg IV, 24 h post-IV administration, BALB/c mice (n = 4)
Protocol: LNP formulations encapsulating enhanced green fluorescent protein mRNA were injected intravenously at 0.5 mg/kg to female BALB/c mice (6-8 weeks old). On day of injection, the LNP stocks were filtered and diluted to the required dosing concentration with phosphate buffered saline. At 24 hours post-administration, animals were anaesthetized with a lethal dosage of ketamine/xylazine. Liver samples (left lateral lobe) were collected, weighed, and flash frozen in liquid nitrogen. Liver samples were stored in FastPrep® tubes at −80° C. until analyzed for EGFP expression.
Liver homogenates were prepared in cell extraction buffer, diluted, and analyzed for EGFP protein levels using ELISA, according to manufacturer's instructions (Abcam, GFP ELISA Kit).

[7] = Table 1, luciferase mRNA LNP 1.6:54.6:32.8:10.9
[8] = Table 2, luciferase mRNA LNP 1.6:54.6:32.8:10.9
[9] = Table 3, luciferase mRNA LNP 1.6:54.6:32.8:10.9
[10] = Table 4, luciferase mRNA LNP 1.6:54.6:32.8:10.9
[11] = Table 5, luciferase mRNA LNP 1.6:54.6:32.8:10.9
[12] = Table 6, luciferase mRNA LNP 1.6:54.6:32.8:10.9
[13] = Table 7, luciferase mRNA LNP 1.6:54.6:32.8:10.9

Compound: CCCCC/C=C\CCCC(CCC/C=C\CCCCC)C(CCC/C=C\CCCCC)OC(=O)CCCCN(C)C (stereo not drawn) [Compound 13-B43, reference compound]
- Final Product % EE [1, 7]: 94%
- Final Product PDI [1, 7]: 0.13
- Final Product Z-avg ([1]; Table 1, luciferase mRNA LNP 1.6:54.6:32.8:10.9 PEG2000-C-DMA:Ionizable lipid:Cholesterol:DSPC): 70 nm
- Final Product % EE [1, 8]: 99%
- Final Product PDI [1, 8]: (0.03)
- Final Product Z-avg [1, 8]: 72 nm
- Final Product % EE [1, 9]: 99%
- Final Product PDI [1, 9]: 0.06
- Final Product Z-avg [1, 9]: 72 nm
- Final Product % EE [1, 10]: 98%
- Final Product PDI [1, 10]: 0.07
- Final Product Z-avg [1, 10]: 72 nm
- Final Product % EE [1, 11]: 98%
- Final Product PDI [1, 11]: 0.06
- Final Product Z-avg [1, 11]: 69 nm
- Final Product % EE [1, 12]: 99%
- Final Product PDI [1, 12]: 0.07
- Final Product Z-avg [1, 12]: 77 nm
- Final Product % EE [1, 13]: 98%
- Final Product PDI [1, 13]: 0.06
- Final Product Z-avg [1, 13]: 74 nm
- Luc Activity ([2]; Table 8): 5.94E+07 pg/g liver
- Luc Activity ([2]; Table 9): 7.29E+07 pg/g liver
- Luc Activity ([2]; Table 10): 7.04E+07 pg/g liver
- Luc Activity ([2]; Table 11): 6.86E+07 pg/g liver
- Luc Activity ([2]; Table 12): 7.83E+07 pg/g liver
- Luc Activity ([2]; Table 13): 7.60E+07 pg/g liver
- Luc Activity ([2]; Table 14): 6.02E+07 pg/g liver
- Human OTC expression ([3]; 0.3 mg/kg IV): 908 ng hOTC/mg protein in liver
- Human OTC expression ([3]; 1 mg/kg IV): 6651 ng hOTC/mg protein in liver
- Human OTC expression ([3]; 3 mg/kg IV): 12413 ng hOTC/mg protein in liver
- Parent ionizable lipid remaining in liver, Average ([4]; Table 28): 38.48 nmol/g liver
- Parent ionizable lipid remaining in liver, Average ([4]; Table 29): 29.77 nmol/g liver
- Parent ionizable lipid remaining in liver, Average ([4]; Table 30): 50.86 nmol/g liver
- Parent ionizable lipid remaining in liver, Average ([4]; Table 31): 23.9 nmol/g liver
- Parent ionizable lipid remaining in liver, Average ([5]; 0.25 h post-dose): 29.8 nmol/g liver
- Parent ionizable lipid remaining in liver, Average ([5]; 1 h post-dose): 31.2 nmol/g liver
- Parent ionizable lipid remaining in liver, Average ([5]; 3 h post-dose): 40.2 nmol/g liver
- Parent ionizable lipid remaining in liver, Average ([5]; 6 h post-dose): 45.2 nmol/g liver
- Parent ionizable lipid remaining in liver, Average ([5]; 24 h post-dose): 26.4 nmol/g liver
- Parent ionizable lipid remaining in liver, Average ([5]; 168 h post-dose): 25.6 nmol/g liver
- EGFP ([6]; Table 24): 3.75E+07 pg/g liver
- EGFP ([6]; Table 25): 9.74E+04 pg/g liver
- EGFP ([6]; Table 26): 5.23E+07 pg/g liver
- EGFP ([6]; Table 27): 6.46E+07 pg/g liver
